According to article PMC12452389, “Arginine-Derived Cationic Surfactants Containing Phenylalanine and Tryptophan: Evaluation of Antifungal Activity, Biofilm Eradication, Cytotoxicity, and Ecotoxicity” (Journal of Xenobiotics, 2025):
≈ marks a conversion by molar mass, not a printed value. Like-named read-outs stand apart in the source and are kept apart here.

Assays:
[1] = system: Candida tropicalis ATCC 7349; test: MIC broth microdilution; type: cell-based; conditions: C. tropicalis; for MIC: Candida tropicalis, ATCC7349, read-out: MIC
Method: (§1) The antimicrobial activity of these compounds was assessed against selected yeast and bacterial strains: Candida albicans ATCC 90028 (CA9), Candida rugosa ATCC 10571 (CR), Candida glabrata ATCC 66032 (CG), Candida parapsilosis ATCC 22019 (CP), Candida tropicalis ATCC 7349 (CT), Candida auris ATCC 21092 (CA), and Cyberlindnera jadinii ATCC 60459. Frozen yeast stocks were plated on Sabouraud agar (SBA) and incubated at 30 °C for 24 h. Three to four colonies from each strain were then suspended in RPMI 1640 (Roswell Park Memorial Institute medium, Sigma- Aldrich, Merck, Darmstadt, Germany) to prepare bacterial dispersions of ~1.5 × 10^6 CFU/mL.
(§2) A broth microdilution assay was used to calculate MIC values. Twofold serially diluted compounds in RPMI 1640 medium (from 256 to 2 μg/mL), were dispensed (100 μL per well) into a 96-well plate. Then, 100 μL of a yeast starter culture was added to each well to reach a final inoculum of 7.5 × 10^5 CFU/mL. Wells containing only nutrient broth without the tested surfactant served as growth controls. Microbial growth was assessed by turbidity, which reflects increases in biomass and cell count. […] To confirm the obtained MICs, 20 μL of 0.015% (w/v) resazurin was dispensed to each well and incubated for 3 h at 30 °C. Metabolic activity was evidenced by a color change from blue to pink, thereby confirming the MIC value.

[2] = system: Candida glabrata ATCC 66032; test: MIC broth microdilution; type: cell-based; conditions: for MIC: Nakaseomyces glabratus, read-out: MIC
Method: as §1, §2

[3] = system: Candida rugosa ATCC 10571; test: MIC broth microdilution; type: cell-based; conditions: C. rugosa; for MIC: Diutina rugosa, ATCC10571, read-out: MIC
Method: as §1, §2

Candida auris ATCC 21092 = test: MIC broth microdilution; type: cell-based; conditions: C. auris; for MIC: Candidozyma auris, ATCC21092, read-out: MIC
Method: as §1, §2

[4] = system: Cyberlindnera jadinii ATCC 60459 (C. jardinii); test: MIC broth microdilution; type: cell-based; conditions: for Selectivity Index (HC50/MIC): C. jardini; for MIC: Williopsis jadinii
Method: as §1, §2

[5] = system: Candida parapsilosis ATCC 22019; test: MIC broth microdilution; type: cell-based; conditions: C. parapsilosis; for MIC: Lodderomyces parapsilosis, ATCC22019, read-out: MIC
Method: as §1, §2

[6] = system: Candida albicans ATCC 90028; test: MIC broth microdilution; type: cell-based; conditions: C. albicans; for MIC: Candida albicans, ATCC90028, read-out: MIC
Method: as §1, §2

Vibrio fischeri = test: Luminescence reduction test; type: cell-based; conditions: Aliivibrio fischeri, 0.25 h; Vibrio fischeri bioluminescence, 15 min of exposure; 95% confidence intervals in parentheses
Method: Ecotoxicological assessment of cationic surfactants was conducted using the Vibrio fischeri luminescent bioassay. This method relies on the measurement of decreased bioluminescent output from marine bacteria following contact with potentially toxic substances. Regression analysis was used to determine the concentration of the compound that caused a 50% reduction (EC50) in the amount of light emitted by the bacteria. The stated toxicity statistics given are based on the bacteria being exposed to the ionic liquid solution for 15 min at 15 °C.

[7] = parameters: method as in PMID 36559096; conditions: conductivity values; cited from earlier work
Daphnia magna = test: Acute toxicity, immobilization test; type: in vivo; conditions: Daphnia magna, 48 h
Method: Aquatic toxicity evaluation was performed using Daphnia magna following established protocols. This bioassay method employs laboratory-cultured freshwater microcrustaceans to evaluate surfactant toxicity in aquatic environments. Test organisms were utilized during their initial 24 h life stage to ensure consistency. The endpoint measurement focused on mobility impairment, specifically the loss of swimming capability after gentle stimulation lasting 15 s. Testing conditions included controlled water chemistry parameters: pH maintained at 8.0, calcium-to-magnesium ratio of 4:1, and total hardness of 250 mg/L as CaCO3. All experiments were conducted under dark conditions at 20 °C. The experimental design incorporated ten test concentrations for each surfactant compound, distributed in geometric progression. Each concentration level included 20 Daphnia specimens distributed across four replicate groups of five organisms each. Mobility assessment occurred at 48 h post-exposure, with immobilization percentages plotted against concentration using probability–logarithmic scaling.

[8] = Surface tension, pendant drop tensiometer (cmc, γc); type: physicochemical; conditions: for cmc: from surface tension
Method: Surface tension was measured using a custom-built pendant drop tensiometer, as described in detail in reference. Briefly, a droplet of surfactant solution is formed at the tip of a straight-cut Teflon tube. The image of the droplet is captured using a webcam, and its shape is analyzed by fitting the droplet profile to the Laplace–Young equation [14], To minimize evaporation, all measurements were conducted in a saturated humid atmosphere. The use of this technique is especially well-suited for cationic surfactants because it helps to mitigate complications related to surface adsorption. Critical micelle concentration values (cmc) were determined by finding the intersection of the linear fits before and after the break in the curves.

erythrocytes = test: Hemolytic activity assay; type: cell-based; conditions: rabbit erythrocytes
Method: Fresh rabbit blood was obtained from the Animal Facility of the CID-CSIC (Research and Development Center, Spanish National Research Council, Barcelona, Spain). Sample collection was conducted in strict compliance with the bioethical guidelines established under Spanish legislation. Erythrocytes were isolated by centrifugation (3000 rpm/10 min). The supernatant was discarded, and the erythrocytes were washed three times with PBS (phosphate-buffered saline, pH 7.4) and then resuspended in PBS at a concentration of 8 × 10^9 cells/mL. Subsequently, varying volumes of a concentrated surfactant solution were added to Eppendorf tubes containing 25 μL of erythrocyte suspension. PBS was then added to bring the total volume to 1 mL. The samples were gently shaken for 10 min at room temperature and centrifuged at 10,000 rpm for 5 min. Hemolysis was evaluated by measuring the absorbance of the supernatant at 540 nm and comparing it to that of a 100% hemolysis control (erythrocytes treated with distilled water). The HC50, defined as the surfactant concentration that induces 50% hemolysis, was determined from the concentration–response curves: % hemolysis= Abstest compound/AbsBasal haemolytic activity ×100

[9] = ATCC66032, 24 h, C. glabrata, RPMI 1640, 24 h, 30 °C
[10] = ATCC66032, C. glabrata, value in parentheses

CCCCCCCCCCNC(=O)C(CCCNC(=N)N)NC(=O)C(N)Cc1ccccc1 (centres unmarked) [PANHC10]
Selectivity Index (HC50/MIC) ([1]; Table S2): 1.6
MIC ([1]; RPMI 1640, 24 h, 30 °C): 128 µg/mL
MIC ([1]; value in parentheses): 240 µM
Selectivity Index (HC50/MIC) ([2]; C. glabrata, Table S2): 3.7
MIC [2, 9]: 64 µg/mL
MIC [2, 10]: 120 µM
Selectivity Index (HC50/MIC) ([3]; Table S2): 1.6
MIC ([3]; RPMI 1640, 24 h, 30 °C): 128 µg/mL
MIC ([3]; value in parentheses): 240 µM
Selectivity Index (HC50/MIC) (Candida auris ATCC 21092; Table S2): 0.8
MIC (Candida auris ATCC 21092; RPMI 1640, 24 h, 30 °C): 256 µg/mL
MIC (Candida auris ATCC 21092; value in parentheses): 480 µM
Selectivity Index (HC50/MIC) ([4]; Table S2): 1.6
MIC ([4]; ATCC60459, C. jardinii, RPMI 1640, 24 h, 30 °C, read-out: MIC): 128 µg/mL
MIC ([4]; ATCC60459, C. jardinii, value in parentheses, read-out: MIC): 240 µM
Selectivity Index (HC50/MIC) ([5]; Table S2): 3.7
MIC ([5]; RPMI 1640, 24 h, 30 °C): 64 µg/mL
MIC ([5]; value in parentheses): 120 µM
Selectivity Index (HC50/MIC) ([6]; Table S2): 1.6
MIC ([6]; RPMI 1640, 24 h, 30 °C): 128 µg/mL
MIC ([6]; value in parentheses): 240 µM
EC50 (Vibrio fischeri): 5.6 µg/mL (≈ 12.2 µM)
cmc Cond [7]: 7.2 mM
EC50 (Daphnia magna): 22 µg/mL (≈ 47.8 µM)
γc (surface tension at the cmc) [8]: 30.6 ± 9.7 mNm^−1
cmc [8]: 6.7 mM
HC50 (erythrocytes; 10 min, room temperature): 215 ± 22 µg/mL
HC50 (erythrocytes; value in parentheses): 404 ± 42 µM

CCCCCCCCCCCC(=O)NC(CCCNC(=N)N)C(=O)OC (centres unmarked) [C12AM]
Selectivity Index (HC50/MIC) ([1]; Table S1): 14
MIC ([1]; RPMI 1640, 24 h, 30 °C): 8 µg/mL
MIC ([1]; value in parentheses): 19 µM
Selectivity Index (HC50/MIC) ([2]; C. glabrata, Table S1): 7
MIC [2, 9]: 16 µg/mL
MIC [2, 10]: 39 µM
Selectivity Index (HC50/MIC) ([3]; Table S1): 1.7
MIC ([3]; RPMI 1640, 24 h, 30 °C): 64 µg/mL
MIC ([3]; value in parentheses): 156 µM
Selectivity Index (HC50/MIC) (Candida auris ATCC 21092; Table S1): 0.9
MIC (Candida auris ATCC 21092; RPMI 1640, 24 h, 30 °C): 128 µg/mL
MIC (Candida auris ATCC 21092; value in parentheses): 312 µM
Selectivity Index (HC50/MIC) ([4]; Table S1): 1.7
MIC ([4]; ATCC60459): 156 µM
MIC ([4]; ATCC60459, 24 h): 64 µg/mL
Selectivity Index (HC50/MIC) ([5]; Table S1): 7
MIC ([5]; RPMI 1640, 24 h, 30 °C): 16 µg/mL
MIC ([5]; value in parentheses): 39 µM
Selectivity Index (HC50/MIC) ([6]; Table S1): 3.4
MIC ([6]; RPMI 1640, 24 h, 30 °C): 32 µg/mL
MIC ([6]; value in parentheses): 78 µM
EC50 (Vibrio fischeri): 1.9 µg/mL (≈ 5.13 µM)
cmc Cond [7]: 6 mM
EC50 (Daphnia magna): 4.4 µg/mL (≈ 11.9 µM)
γc (surface tension at the cmc) [8]: 29.5 ± 1.5 mNm^−1
cmc [8]: 1.7 mM
HC50 (erythrocytes; 10 min, room temperature): 109 ± 0.6 µg/mL
HC50 (erythrocytes; value in parentheses): 270 ± 1.7 µM
